# Columns and labels:
# lumbar disc herniation = assay: Treatment of patients with lumbar disc herniation with oral benzbromarone (case reports); assay type: in vivo, human
# [1] = tested on: cervical disc herniation / cervical disease; assay: Treatment of patients with cervical disc herniation / cervical disease with oral benzbromarone (case reports); assay type: in vivo, human
# Text: The clinical effect criteria of the drug of the present application for treating cervical spondylosis can also be evaluated 2 weeks after treatment.
# [2] = Patient A, 100 mg first day then 50 mg once a day, after five days
# [3] = Patient A, 100 mg first day then 50 mg once a day, after two days
# [4] = Patient B, 50 mg once a day, after seven days
# [5] = Patient C, 12.5 mg once a day, after continuous administration for six days
# [6] = Patient H, 100 mg once a day plus sodium bicarbonate, after six days
# [7] = Patient L, 100 mg once a day plus sodium bicarbonate, after seven days
smiles,measurement,setting,value
CCc1oc2ccccc2c1C(=O)c1cc(Br)c(O)c(Br)c1 [benzbromarone],painful symptoms,"lumbar disc herniation; Patient A, about 75 kg, once a day, 100 mg first day then 50 mg, after one day",lessened
same,pain,lumbar disc herniation; [2],basically disappeared
same,walking,lumbar disc herniation; [2],could walk properly
same,ability to walk,lumbar disc herniation; [3],able to walk
same,painful symptoms,lumbar disc herniation; [3],alleviated obviously
same,recurrence of symptoms,"lumbar disc herniation; Patient A, within the next six months",haven't occurred
same,painful symptoms,"lumbar disc herniation; Patient B, about 60 kg, 50 mg once a day, waist massage first two days, after two days",alleviated obviously
same,ability to walk and work,lumbar disc herniation; [4],able to walk and work
same,pain during severe coughing,lumbar disc herniation; [4],no perceptible pain
same,waist pain,lumbar disc herniation; [4],basically disappeared
same,recurrence,"lumbar disc herniation; Patient B, within the next three months",no recurrence
same,pain,"lumbar disc herniation; Patient C, 12.5 mg once a day, waist massage first two days, six days later",significantly lessened
same,symptoms of pain,lumbar disc herniation; [5],disappeared
same,walking and ability to work,lumbar disc herniation; [5],walked properly and was able to work
same,Straight leg raising test,"lumbar disc herniation; Patient C, 12.5 mg once a day, after continuous administration for six days, positive before treatment",negative
same,recurrence,"lumbar disc herniation; Patient C, within the next two months",no recurrence
same,pain,"lumbar disc herniation; Patient D, L4/5 protrusion, 50 mg once a day, no other treatment, three days later",significantly lessened
same,"walking, ability to work, pain","lumbar disc herniation; Patient D, 50 mg once a day, after six days",walked properly and was able to work without pain
same,Straight leg raising test,"lumbar disc herniation; Patient D, 50 mg once a day, after six days, positive before treatment",negative
same,recurrence,"lumbar disc herniation; Patient D, within the next three months",no recurrence
same,pain,"lumbar disc herniation; Patient F, about 25 mg once a day, waist massage first three days, three days later",significantly lessened
same,walking,"lumbar disc herniation; Patient F, about 25 mg once a day, after six days",walked properly
same,ability to walk,"lumbar disc herniation; Patient F, about 25 mg once a day, three days later",able to walk
same,recurrence,"lumbar disc herniation; Patient F, within the next two months",no recurrence
same,pain,"lumbar disc herniation; Patient H, about 62 kg, L3/4 protrusion, 100 mg once a day plus sodium bicarbonate tablets 0.5 g three times a day, two days later",significantly reduced
same,pain when coughing,lumbar disc herniation; [6],no pain was felt
same,waist pain,lumbar disc herniation; [6],basically disappeared
same,walking and ability to work,lumbar disc herniation; [6],"could walk normally, and was able to work"
same,Straight leg raising test,"lumbar disc herniation; Patient H, 100 mg once a day plus sodium bicarbonate, after six days, positive before treatment",negative
same,recurrence,"lumbar disc herniation; Patient H, within the next three months",No recurrence
same,pain,lumbar disc herniation; [7],basically disappeared
same,walking and work ability,lumbar disc herniation; [7],"normal walking, work ability recovery"
same,Bragard test,"lumbar disc herniation; Patient L, 100 mg once a day plus sodium bicarbonate, after seven days, positive before treatment",negative
same,relapse,"lumbar disc herniation; Patient L, during the following two months",no relapse
same,"symptoms in pain, upper limbs numbness and dizziness","[1]; Patient E, cervical intervertebral disc herniation, about 50 mg once a day, no other treatment, six days later",relieved
same,pain and dizziness symptoms,"[1]; Patient G, cervical disease, about 25 mg once a day, neck massage first three days, eight days later",disappeared
same,Fenz signs,"[1]; Patient G, about 25 mg once a day, eight days later, positive before treatment",negative
same,dizziness symptoms,"[1]; Patient I, about 55 kg, cervical disc herniation, capsules 50 mg twice a day plus sodium bicarbonate tablets 0.5 g three times a day, after three days",reduced significantly
same,pain and dizziness symptoms,"[1]; Patient I, capsules 50 mg twice a day plus sodium bicarbonate, after eight days",disappeared
same,flexion neck rotation test,"[1]; Patient I, capsules 50 mg twice a day plus sodium bicarbonate, after eight days, positive before treatment",negative
same,recurrence,"[1]; Patient I, within the next one months",no recurrence
